In patent publication US8633252B2, “Use of pterosin compounds for treating diabetes and obesity” (Taipei Medical University, priority 2009, dated 2014):

Columns and labels:
[1] = system: Streptozotocin (STZ)-induced diabetic mice; assay: Glucose tolerance assay in type I diabetic mice; format: in vivo
Experimental: Streptozotocin (STZ)-induced diabetic mice were administered orally with Compound 1 (50 mg/kg). STZ-induced diabetic mice are a well-known mouse model of type I diabetes (insulin dependent). See, e.g., Liu I M, et al., Neuroscience Letters 2001; 307: 81-84.
Two hours later, normal mice, STZ-induced diabetic mice, and the Compound 1-treated STZ-mice as described were subjected to a glucose tolerance assay. Briefly, all of the mice were orally administered with 1 g/kg glucose and the blood glucose levels of these mice were examined at 30, 60, 90, 120 and 150 minutes. In the normal and STZ-diabetic mice, the blood glucose levels elevated 30 minutes after uptake of glucose.
Alternatively, STZ-induced diabetic mice were treated with Compound 1 orally (100 mg/kg) for 14 days. These mice were then orally administered with glucose at a dose of 2 g/kg. Their blood glucose levels were examined 15, 45, 75, and 105 minutes after glucose administration.

C2C12 mycrotubes [2] = assay: Insulin sensitivity assay (glucose uptake in presence of insulin); format: cell-based; settings: in the presence of insulin 100 nM
Experimental: Differentiated C2C12 mycrotubes (American Type Culture Collection: ATCC) were used to conduct an insulin sensitivity assay, which was performed based on the method as described in Experimental and Molecular Medicine, Vol. 39, No. 2, 222-229, 2007. Briefly, the cells were incubated with different concentrations of Compound 1 in the presence of insulin 100 nM, and then the glucose uptake was measured. AMPK activator AICAR (5-amino-4-carboxamide imidazole riboside 5′-phosphate, […]) was used as a positive control.

db/db mice [3] = assay: HOMA-IR test in type II diabetic mice; format: in vivo; settings: 100 mg/kg/day orally for 28 days
Experimental: HOMA-IR is expressed by an empirical mathematical formula based on fasting plasma glucose and fasting plasma insulin levels that was developed as a surrogate measurement of in vivo insulin sensitivity: HOMA value for insulin resistance: (HOMA-IR)=fasting insulin (μU/ml)×fasting glucose (mmol/l)/22.5. See, e.g., Biol. Pharm. Bull. 2007; 30:2196-2200.
In this study, the db/db mice (Jackson Laboratory) were orally administered with Compound 1 (100 mg/kg/day) for 28 days. Subsequently, normal mice, db/db-mice, and the Compound 1-treated db/db-mice were subjected to a HOMA-IR test, which was conducted based on a method as described in Biol. Pharm. Bull. 2007; 30:2196-2200. Briefly, mouse insulin enzyme immunoassay ELISA kit was used to measure the plasma insulin concentration. Insulin resistance was determined by the homeostasis model assessment (HOMA) method.

[4] = system: AMP-activated protein kinase (AMPK); assay: AMPK phosphorylation assay; format: cell-based; settings: C2C12 myotubes, 0, 1, 3, 10 and 30 μM, 37° C., 1 hour
Experimental: In this study, differentiated C2C12 mycrotubes (American Type Culture Collection: ATCC) were used to conduct an AMPK phosphorylation assay, which was performed based on the method as described in Experimental and Molecular Medicine, Vol. 39, No. 2, 222-229, 2007. Briefly, the cells were cultured as in Example 1 and incubated with different concentrations of Compound 1 (0, 1, 3, 10 and 30 μM) at 37° C. for 1 hour and then cells were lysed. The cell lysate were immunodetected with phosphor-AMPK specific antibody. […] AMPK activator AICAR (5-amino-4-carboxamide imidazole riboside 5′-phosphate, 1 mM) was used as a positive control.

C2C12 mycrotubes [5] = assay: Glucose consumption/uptake assay; format: cell-based; settings: [14C]2-DG, incubated with compounds for 1 hour
Experimental: Differentiated C2C12 mycrotubes (American Type Culture Collection: ATCC) were used to conduct a glucose consumption/uptake assay, which was performed based on the method as described in Experimental and Molecular Medicine, Vol. 39, No. 2, 222-229, 2007. Briefly, the C2C12 cells were pretreated with 0.5 μCi [^14C]2-DG for 20 min and then incubated with compounds for 1 hour to determine glucose uptake by radio activity. All values are expressed as the means±S.E. of three experiments.

[6] = system: Glut4 (glucose transporter-4); assay: Glucose transporter-4 (Glut4) expression assay in soleus muscles; format: in vivo; settings: STZ-induced diabetic mice, 100 mg/kg orally for 14 days, western blot
Experimental: GLUT4 plays an important role in insulin-induced glucose uptake to maintain normal blood glucose levels. In this study, STZ-induced diabetic mice were treated with Compound 1 orally (100 mg/kg) for 14 days; and then normal mice, STZ-induced diabetic, and the Compound 1-treated STZ-mice as described were analyzed for the Glut4 expression in soleus muscles based on the method as described in Biochem J. 1996; 313(Pt 1): 133-140). Briefly, at the end of the experimental period, animals were sacrificed by exsanguinations under diethyl ether anesthesia. Soleus muscles from each animal were excised and weighed. The soleus muscles were homogenized in lysis buffer and centrifugation, and then went to determine the GLUT4 protein expression by western blot analysis.

PEPCK mRNA = assay: Phosphoenolpyruvate carboxykinase (PEPCK) mRNA expression assay in liver; format: in vivo; settings: STZ-induced diabetic mice, 100 mg/kg orally for 14 days, RT-PCR
Experimental: PEPCK is known as a key enzyme that controls gluconeogenesis in the liver. In this study, STZ-induced diabetic mice were treated with Compound 1 orally (100 mg/kg) for 14 days, and then normal mice, STZ-induced diabetic, and the Compound 1-treated STZ-mice described above were analyzed for the PEPCK mRNA expression in liver based on the method as described in Bulletin of Experimental Biology and Medicine 1979; 87: 568-571. Briefly, at the end of the experimental period, animals were sacrificed by exsanguinations under diethyl ether anesthesia. Livers from each animal were excised and weighed. The liver homogenates were prepared to determine the PEPCK mRNA expression by RT-PCR analysis.

db/db mice [7] = assay: Glucose tolerance assay in type II diabetic mice; format: in vivo; settings: 100 mg/kg/day orally 28 days or 30 mg/kg/day i.p. 21 or 28 days
Experimental: Insulin-resistant C57BL/6J-Leprdb/Lepr^db (hereafter, db/db) mice are a well-known mouse model of type II diabetes. See, e.g., Metabolism. 2000; 49:22-31). In this study, the db/db mice (Jackson Laboratory) were orally administered with Compound 1 (100 mg/kg/day) for 28 days, or administered with Compound 1 (30 mg/kg/day) via intraperitoneal (i.p.) injection for 21 days or 28 days. Two hours later, normal mice, db/db-mice, and the Compound 1-treated db/db-mice were subjected to a glucose tolerance assay as described in Example 1. FIGS. 6 to 8 show the results.

db/db mice [8] = assay: HbA1C (Haemoglobin A1C) test in type II diabetic mice; format: in vivo; settings: 100 mg/kg/day orally for 28 days
Experimental: In the blood stream, glucose sticks to the haemoglobin to form a “glycosylated haemoglobin” molecule, called haemoglobin A1C or HbA1C. The more glucose in the blood, the more haemoglobin A1C or HbA1C will be present in the blood. The HbA1C test is currently one of the common ways to check if diabetes is under control. See, e.g. Diabetes Care. 2001; 24:465-471.
In this study, the db/db mice (Jackson Laboratory) were orally administered with Compound 1 (100 mg/kg/day) for 28 days. Subsequently, normal mice, db/db-mice, and the Compound 1-treated db/db-mice were subjected to a HbA1C test, which was conducted based on a method as described in Life Sci. 2005; 77:1391-403. Briefly, at the end of the experimental period, animals were sacrificed by exsanguinations under diethyl ether anesthesia. Plasma was separated from the blood by centrifugation. HbA1c in blood was measured by the standardized method.

acetyl CoA carboxylase = assay: Acetyl CoA carboxylase (ACC) phosphorylation assay; format: cell-based; settings: C2C12 mycrotubes, different concentrations
[9] = system: High fat-diet fed (HFD) mice; assay: Blood lipid/cholesterol assay in high fat-diet fed mice; format: in vivo; settings: 100 mg/kg orally for 28 days
Experimental: High fat-diet fed (HFD) mice as a type 2 diabetic model were prepared based on the method as previously described in Diabetes 53 (Suppl. 3):S215-S219, 2004). In this study, mice were fed with a high-fat diet (TestDiet, Richmond, Ind., USA; fat content 60% kcal) for 8 weeks to induce type 2 diabetes. The HFD mice were treated with Compound 1 orally (100 mg/kg) for 28 days; and then normal mice, HFD mice, and the Compound 1-treated HFD mice were analyzed for the levels of serum lipids, including total cholesterol, triglyceride, high-density lipoprotein (HDL)-cholesterol, and low-density lipoprotein (LDL)-cholesterol by ELISA kits.

[10] = STZ-induced diabetic mice, 100 mg/kg orally for 14 days, glucose 2 g/kg orally

Compound	phosphorylation of the AMPK alpha-subunit at Thr172 [4]	blood glucose levels in STZ-induced diabetic mice (glucose tolerance) [1, 10]	insulin sensitivity (glucose uptake) (C2C12 mycrotubes [2])	HOMA-IR levels (db/db mice [3])	other results
Cc1cc2c(c(C)c1CCO)C(=O)C(C)(C)C2O (stereo not shown) [Compound 7]	the same effect	the same effect	the same effect	the same effect	–
Cc1cc2c(c(C)c1CCO)C(=O)C(C)C2O (stereo not shown) [Compound 4]	the same effect	–	–	–	–
Cc1cc2c(c(C)c1CCO)C(=O)C(C)(CO)C2 (stereo not shown) [Compound 1, 6-(2-Hydroxy-ethyl)-2-hydroxymethyl-2,5,7-trimethyl-indan-1-one]	increased the phosphorylation of the AMPK alpha-subunit at Thr^172 in a dose dependent manner	significantly lowered blood glucose levels	significantly enhanced the insulin sensitivity	significantly reduced the HOMA-IR levels	blood glucose levels at 30 minute after glucose uptake ([1]; STZ-diabetic mice, 50 mg/kg orally, 2 hours before 1 g/kg oral glucose, 30 min): increased only slightly; blood glucose levels 60 minutes after glucose uptake ([1]; STZ-diabetic mice, 50 mg/kg orally, 2 hours before 1 g/kg oral glucose, 60 min): significantly lowered; blood glucose levels 45 minutes after glucose administration ([1]; STZ-induced diabetic mice, 100 mg/kg orally for 14 days, glucose 2 g/kg orally, 45 min): decreased significantly; glucose consumption/uptake (C2C12 mycrotubes [5]): significantly promote glucose consumption/uptake; redistribution of Glut4 into the cell membrane of soleus muscles [6]: significantly rescued the redistribution of Glut4; overexpression of PEPCK mRNA in the liver (PEPCK mRNA): significantly inhibited the overexpression of PEPCK mRNA; glucose intolerance in db/db-mice (db/db mice [7]): significantly improved the glucose intolerance; HbA1C levels (db/db mice [8]): significantly reduced the HbA1C levels; phosphorylation of acetyl CoA carboxylase at Ser79 (acetyl CoA carboxylase): increased phosphorylation; anti-obesity effects [9]: exhibited anti-obesity effects; serum lipids ([9]; total cholesterol, triglyceride, HDL- and LDL-cholesterol by ELISA): significantly reduced serum lipids

The next lines start with results.

phosphorylation of the AMPK alpha-subunit at Thr172 [4]	Compound	blood glucose levels in STZ-induced diabetic mice (glucose tolerance) [1, 10]	insulin sensitivity (glucose uptake) (C2C12 mycrotubes [2])	HOMA-IR levels (db/db mice [3])	other results
the same effect	Cc1cc2c(c(C)c1CCOC1OC(CO)C(O)C(O)C1O)C(=O)C(C)(C)C2 (stereo not shown) [Compound 52]	–	–	–	–
the same effect	Cc1cc2c(c(C)c1CCO)C(=O)C(C)(C)C2OC1OC(CO)C(O)C(O)C1O (stereo not shown) [Compound 73]	the same effect	the same effect	the same effect	–
